Measured values from paper PMC11161652, “ASXLs binding to the PHD2/3 fingers of MLL4 provides a mechanism for the recruitment of BAP1 to active enhancers” (Nature Communications, 2024).
Ends that are not written are not given here.

How the values were obtained:
MLL4PHD2/3 D285K = molecular target: T1, MLL4PHD2/3 D285K (Homo sapiens, UniProt O14686, D285K); test: NMR titration binding, D285K MLL4PHD2/3; details: 1H,15N HSQC titration, 0.1 mM protein, 20 mM Tris pH 6.8, 150 mM NaCl, 3 mM DTT, 7% D2O, 298 K, mean ± SD, n = 3
T1 construct: MLL4 (aa 227-324); GST (N, cleaved yes); made in house; host or cells: E. coli BL21-CodonPlus
Method: (§1) All constructs were expressed in BL21-CodonPlus competent cells.
Normalized chemical shift changes were calculated using the equation Δδ=△δH^2+△sn/5^2 (2), where Δδ is the change in chemical shift in parts per million (ppm).

MLL4PHD2/3 K274E = molecular target: T2, MLL4PHD2/3 K274E (Homo sapiens, UniProt O14686, K274E); test: NMR titration binding, K274E MLL4PHD2/3; details: 1H,15N HSQC titration, 0.1 mM protein, 20 mM Tris pH 6.8, 150 mM NaCl, 298 K
T2 construct: MLL4 (aa 227-324); GST (N, cleaved yes); made in house; host or cells: E. coli BL21-CodonPlus
Method: as §1
(§2) For NMR titration experiments, ^1H,^15N HSQC spectra of 0.1 mM uniformly ^15N-labeled WT or mutated MLL4PHD2/3, MLL3PHD2/3 or MLL3PHD4 were recorded while WT or mutated ASXL2 (aa 650-670, 650-664, 656-670) and ASXL3 (aa 1047-1067) peptides (synthesized by SynPeptide) or MLL3PHD2/3 were added stepwise. All experiments were carried out in 20 mM Tris buffer (pH 6.8), 150 mM NaCl, and 3 mM DTT, containing 7% D2O. The dissociation constants (Kds) were determined by a nonlinear least-squares analysis in GraphPad Prism using the equation:1 △δ=△δmaxL+P+Kd−L+P+Kd^2−4PL/2P where [L] is concentration of the peptide, [P] is concentration of the protein, Δδ is the observed chemical shift change, and Δδmax is the normalized chemical shift change at saturation. Normalized chemical shift changes were calculated using the equation Δδ=△δH^2+△sn/5^2 (2), where Δδ is the change in chemical shift in parts per million (ppm).

MLL4PHD2/3 V290K = molecular target: T3, MLL4PHD2/3 V290K (Homo sapiens, UniProt O14686, V290K); test: NMR titration binding, V290K MLL4PHD2/3; details: 1H,15N HSQC titration, 0.1 mM protein, 20 mM Tris pH 6.8, 150 mM NaCl, 298 K
T3 construct: MLL4 (aa 227-324); GST (N, cleaved yes); made in house; host or cells: E. coli BL21-CodonPlus
Method: as §1, §2

MLL4PHD2/3 D257K/D285K = molecular target: T4, MLL4PHD2/3 D257K/D285K (Homo sapiens, UniProt O14686, D257K/D285K); test: NMR titration binding, D257K/D285K MLL4PHD2/3; details: 1H,15N HSQC titration, 0.1 mM protein, 20 mM Tris pH 6.8, 150 mM NaCl, 298 K
T4 construct: MLL4 (aa 227-324); GST (N, cleaved yes); made in house; host or cells: E. coli BL21-CodonPlus
Method: as §1, §2

MLL4PHD2/3 L256K = molecular target: T5, MLL4PHD2/3 L256K (Homo sapiens, UniProt O14686, L256K); test: NMR titration binding, L256K MLL4PHD2/3; details: 1H,15N HSQC, 0.1 mM protein, 20 mM Tris pH 6.8, 298 K
T5 construct: MLL4 (aa 227-324); GST (N, cleaved yes); made in house; host or cells: E. coli BL21-CodonPlus
Method: as §1, §2

MLL3PHD2/3 D372K/D400K = molecular target: T6, MLL3PHD2/3 D372K/D400K (Homo sapiens, UniProt Q8NEZ4, D372K/D400K); test: NMR titration binding, D372K/D400K MLL3PHD2/3; details: 1H,15N HSQC titration, 0.1 mM protein, 20 mM Tris pH 6.8, 150 mM NaCl, 298 K
T6 construct: human MLL3 (aa 342-439); GST (N, cleaved yes); made in house; host or cells: E. coli BL21-CodonPlus
Method: as §1, §2

T6 sequence (Q8NEZ4 342-439 D372K/D400K): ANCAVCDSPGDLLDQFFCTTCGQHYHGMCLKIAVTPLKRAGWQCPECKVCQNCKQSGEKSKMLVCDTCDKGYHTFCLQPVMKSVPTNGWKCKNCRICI
T2 sequence (O14686 227-324 K274E): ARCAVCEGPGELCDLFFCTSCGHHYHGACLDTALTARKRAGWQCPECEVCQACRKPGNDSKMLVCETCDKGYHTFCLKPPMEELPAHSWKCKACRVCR
T1 sequence (O14686 227-324 D285K): as the sequence (O14686 227-324 K274E) above, with E48K, D59K counted along it
T4 sequence (O14686 227-324 D257K/D285K): as the sequence (O14686 227-324 K274E) above, with D31K, E48K, D59K counted along it
T3 sequence (O14686 227-324 V290K): as the sequence (O14686 227-324 K274E) above, with E48K, V64K counted along it
T5 sequence (O14686 227-324 L256K): as the sequence (O14686 227-324 K274E) above, with L30K, E48K counted along it

- Kd (MLL4PHD2/3 D285K): 1700 µM
- Kd (MLL4PHD2/3 K274E): no binding
- Kd (MLL4PHD2/3 V290K): no binding
- Kd (MLL4PHD2/3 D257K/D285K): no binding
- Kd (MLL4PHD2/3 L256K): unfolded
- Kd (MLL3PHD2/3 D372K/D400K): no binding
Sequence: NRTGARTLADIKAKAQLVKAQ [ASXL2 650-670]
